From patent US20110054014A1, “PRENYLFLAVANONE COMPOUNDS AND USES THEREOF” (NatureWise Biotech & Medicals Corporation, priority 2008, published 2011)
Where two headings read alike, the source gives them in different places.

Tested on: Human breast cancer MCF-7 and MDA-MB-231 cells
Assay: Cytotoxicity assay (trypan blue exclusion)
Conditions: for IC50: read-out: IC50 values
Experimental: Human breast cancer MCF-7 and MDA-MB-231 cells were purchased from the Food Industry Research and Development Institute (Hsinchu, Taiwan). The cells were cultured in Dulbecco's modified Eagle's medium (Gibco) containing 10% fetal bovine serum (FBS), a 1% dilution of penicillin-streptomycin, and 2 mM glutamine. Cells were maintained at 37° C. in a humidified atmosphere of 95% air and 5% CO2. However, MDA-MB-231 cells were cultured in L-15 medium (Gibco) containing 10% fetal bovine serum (FBS), a 1% dilution of penicillin-streptomycin, and 2 mM glutamine. Cells were maintained at 37° C. in a humidified atmosphere of 100% air and 0% CO2.
The cells (1.5×10^6 per dish) were cultured in a 100-mm dish and incubated for 14 h prior to treatment with DMSO or with different concentrations of propolins (2.5, 5.0, 10, and 20.0 μg/mL) for 48 h. The propolins were small compounds with their MWs ranging from 408-492 Da. These values were converted to their respective molarities.
The cells were counted and their viability was determined by trypan blue exclusion assay. The activity was shown as IC50 value (the concentration required to induce 50% cytotoxicity), and the average value was obtained from triplicate data points.

Q: With `CC(C)=CCC/C(C)=C/Cc1cc([C@@H]2CC(=O)c3c(O)cc(O)cc3O2)cc(O)c1O` [Propolin F, reference compound] as the compound, how does the IC50 (concentration required to induce 50% cytotoxicity, 48 h treatment, human breast cancer cells, cell line not given, one representative of three independent experiments) read?
A: 47.2 µM

Q: With `CC(C)=CCC/C(C)=C/Cc1c(O)cc2c(c1O)C(=O)C[C@@H](c1ccc(O)cc1)O2` [Propolin J, 5,7,4′-trihydroxy-6-geranylflavanone] as the compound, how does the IC50 (Homo sapiens, 48 h) read?
A: 36.8 µM

Q: Which results are given for `CC(C)=CCC/C(C)=C/CC/C(C)=C/Cc1c(O)cc2c(c1O)C(=O)C[C@@H](c1ccc(O)c(O)c1)O2` [Propolin I, 5,7,3′,4′-tetrahydroxy-6-farnesylflavanone]?
A: IC50 (Homo sapiens, 48 h): 10.2 µM; cytotoxic activity against human breast cancer cells (conclusion in words from Table 2): cytotoxic activity
